These results are taken from US20240043467A1, “5'-SUBSTITUTED NUCLEOSIDE MONOPHOSPHATES, PRODRUGS THEREOF, AND USES RELATED THERETO” (EMORY UNIVERSITY, priority 2020, published 2024).

This assay deals with T1, Recombinant human thymidylate synthase (hTS) (Homo sapiens, UniProt P04818).
T1 construct: purchased Abcam
In words: Human thymidylate synthase inhibition assay. It counts as biochemical. Particulars: for hTS inhibition: highest concentration tested 20 μM. The procedure: Recombinant human thymidylate synthase (hTS) was purchased from Abcam. […] 5,10-Methylenetetrahydrofolate (calcium salt) was purchased from Boc Sciences and used without further purification.
The hTS inhibition assays were performed on a BioTek Synergy Neo2 plate reader equipped with a Xenon flash lamp and a photodiode array detector. The hTS reaction was conducted at room temperature in a buffer solution (pH 7.5) containing 50 mM Tris-HCl, 1 mM EDTA, 25 mM MgCl2, and 5 mM HCHO. […] 5,10-Methylenetetrahydrofolate was added last to initiate the reaction. Formation of the co-product, dihydrofolate, was monitored at 340 nm. The absorbance at 340 nm was plotted against the reaction time to calculate the reaction rate (i.e., the slope of the linear fitting). The reaction rates at different inhibitor concentrations were normalized to the reaction rate determined in the absence of inhibitor (100% enzymatic activity). The resulting % enzymatic activity values were plotted against the corresponding log value of the inhibitor concentration to construct concentration-response curves. IC50 values were then calculated using non-linear regression (four-parameter logistic equation, see Equation 1 below) in the GraphPad Prism v.9 software.
Y=Ymin+(Ymax−Ymin)/[1+10^((logIC50−X)×Hill Slope)] Equation 1

T1 sequence (P04818 whole entry): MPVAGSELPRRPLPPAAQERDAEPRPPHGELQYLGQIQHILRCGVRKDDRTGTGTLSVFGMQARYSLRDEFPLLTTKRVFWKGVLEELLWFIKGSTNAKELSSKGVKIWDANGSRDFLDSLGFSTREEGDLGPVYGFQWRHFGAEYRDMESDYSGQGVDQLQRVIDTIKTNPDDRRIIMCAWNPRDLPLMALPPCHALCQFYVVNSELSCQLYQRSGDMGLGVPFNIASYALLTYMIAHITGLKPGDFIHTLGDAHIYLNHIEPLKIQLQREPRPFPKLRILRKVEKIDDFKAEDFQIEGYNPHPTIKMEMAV

In the case of `CC(C)(OP(=O)([O-])[O-])[C@H]1O[C@@H](n2cc(F)c(=O)[nH]c2=O)C[C@@H]1O.[Li+].[Li+]` [MD-7-115, lithium 2-((2S,3S,5R)-5-(5-fluoro-2,4-dioxo-3,4-dihydropyrimidin-1(2H)-yl)-3-hydroxytetrahydrofuran-2-yl)propan-2-yl phosphate], the hTS inhibition result was “inactive”.
The IC50 is the point on the concentration scale where inhibition reaches its midpoint. For the molecule `C[C@@H](OP(=O)(O)O)[C@H]1O[C@@H](n2cc(F)c(=O)[nH]c2=O)C[C@@H]1O` [MD-7-105, lithium (R)-1-((2S,3S,5R)-5-(5-fluoro-2,4-dioxo-3,4-dihydropyrimidin-1(2H)-yl)-3-hydroxytetrahydrofuran-2-yl)ethyl phosphate], the IC50 (50 μM dUMP, 0.84 μM hTS, five repeats, pH 7.5, room temperature, read-out: IC50 against hTS) came out at 1.21 µM.
For the molecule `C[C@H](OP(=O)(O)O)[C@H]1O[C@@H](n2cc(F)c(=O)[nH]c2=O)C[C@@H]1O` [MD-7-112, lithium (S)-1-((2S,3S,5R)-5-(5-fluoro-2,4-dioxo-3,4-dihydropyrimidin-1(2H)-yl)-3-hydroxytetrahydrofuran-2-yl)ethyl phosphate], the hTS inhibition result was “inactive”.
